The results in this text go back to PMC9657098, “Synthesis, In Vitro Biological Evaluation and In Silico Molecular Docking Studies of Indole Based Thiadiazole Derivatives as Dual Inhibitor of Acetylcholinesterase and Butyrylchloinesterase” (Molecules, 2022).

Where two headings read alike, the source gives them in different places.

The target in experiment [1] is AChE (Homo sapiens, UniProt P22303). Nature of the experiment: biochemical. The protocol: (§1) 3.5. Acetylcholinesterase Activity Assay Protocol
(§2) The inhibition of AChE and BChE was determined using a method described earlier.
(§3) Briefly, the stock solutions (1mg/mL) of test analogues were prepared using DMSO. The working solutions (1–100μg/mL) were prepared using serial dilutions (a serial dilution means a series of diluted solutions, e.g., 0.1mg/mL, 0.2mg/mL and so on; the solutions contained 5% DMSO and 95% water). The various concentrations of test compounds (10μL) were pre-incubated with sodium phosphate buffer (0.1 M; pH 8.0; 150μL) and AChE (0.1 U/mL; 20μL) for 15 min at 25°C. The reaction was initiated via the addition of DTNB (1 mM; 10μL) and […] (1 mM; 10 μL). The mixture of reaction was mixed using a cyclomixer and incubated for […]
(§4) wavelength against the blank reading containing 10μL DMSO instead of the test compound (the solution contained 5% DMSO and 95% water). Utilizing the formula given in Equation (1), the percentage of inhibition was computed, and the IC50 was determined under the positive control […]
(§5) % Inhibition = (Absorbance of control—Absorbance of compound)/Absorbance of control × 100 […]
(§6) which was calculated by constructing a non-linear regression graph between the percentages of inhibition vs. concentration, using Graph Pad prism software (version 5.3)(accessed on 5 August […]

Experiment [2] addresses BuChE (Homo sapiens, UniProt P06276). Description: biochemical. As for the experimental part:
as §1, §2, §3, §4, §5, §6

Where [3] appears, read: in vitro enzyme inhibition, 25°C, pH 8.0, read-out: AChE IC50 (µM ± SEM).
Setting [4] is: in vitro enzyme inhibition, read-out: BuChE IC50 (µM ± SEM).

AChE, sequence (P22303 32-614): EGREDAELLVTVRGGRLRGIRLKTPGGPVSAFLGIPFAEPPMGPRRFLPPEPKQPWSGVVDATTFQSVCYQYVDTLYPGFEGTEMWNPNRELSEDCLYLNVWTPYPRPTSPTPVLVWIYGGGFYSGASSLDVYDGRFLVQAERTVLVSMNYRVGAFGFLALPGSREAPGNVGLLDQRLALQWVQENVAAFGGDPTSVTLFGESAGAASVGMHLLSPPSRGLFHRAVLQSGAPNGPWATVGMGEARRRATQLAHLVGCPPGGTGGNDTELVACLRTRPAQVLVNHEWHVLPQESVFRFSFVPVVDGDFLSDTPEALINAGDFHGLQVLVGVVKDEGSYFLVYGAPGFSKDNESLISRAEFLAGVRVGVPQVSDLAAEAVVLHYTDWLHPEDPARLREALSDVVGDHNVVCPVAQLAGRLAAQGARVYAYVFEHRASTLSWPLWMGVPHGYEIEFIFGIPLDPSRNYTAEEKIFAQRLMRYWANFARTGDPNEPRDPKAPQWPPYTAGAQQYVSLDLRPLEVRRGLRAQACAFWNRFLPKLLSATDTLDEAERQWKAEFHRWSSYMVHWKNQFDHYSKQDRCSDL
BuChE, sequence (P06276 29-602): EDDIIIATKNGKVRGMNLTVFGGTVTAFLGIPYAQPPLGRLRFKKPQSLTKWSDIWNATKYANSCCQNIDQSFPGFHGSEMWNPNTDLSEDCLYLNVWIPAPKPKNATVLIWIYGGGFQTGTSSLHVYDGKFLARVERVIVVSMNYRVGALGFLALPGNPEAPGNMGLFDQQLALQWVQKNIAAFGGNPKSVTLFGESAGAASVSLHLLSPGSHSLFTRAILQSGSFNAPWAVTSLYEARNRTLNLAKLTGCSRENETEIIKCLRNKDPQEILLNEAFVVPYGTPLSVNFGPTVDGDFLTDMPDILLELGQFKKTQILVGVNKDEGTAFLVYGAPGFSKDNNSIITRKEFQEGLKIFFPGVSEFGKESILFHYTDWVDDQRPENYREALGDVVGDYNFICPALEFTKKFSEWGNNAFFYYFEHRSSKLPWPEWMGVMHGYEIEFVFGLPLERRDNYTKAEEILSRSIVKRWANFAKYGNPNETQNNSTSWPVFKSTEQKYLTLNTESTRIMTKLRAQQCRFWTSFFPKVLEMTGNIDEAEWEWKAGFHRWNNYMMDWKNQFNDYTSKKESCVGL

On to `O=[N+]([O-])c1cccc([N+](=O)[O-])c1Nc1nnc(Cc2cc3cc(Cl)ccc3[nH]2)s1` [Compound 4], for which the results for the half-maximal inhibitory concentration (IC50) in experiment [1] and in experiment [2] were 2.8 ± 0.1 µM and 5.4 ± 0.1 µM, respectively.

As to `Cc1ccc(Nc2nnc(Cc3cc4cc(Cl)ccc4[nH]3)s2)cc1C` [Compound 5], the results for the IC50 in experiment [1] (setting [3]) and in experiment [2] (setting [4]) were 5.8 ± 0.2 µM and 9.3 ± 0.1 µM, respectively.

In the case of `Cc1cccc(Nc2nnc(Cc3cc4cc(Cl)ccc4[nH]3)s2)c1C` [Compound 6], the figures for the IC50 in experiment [1] (setting [3]) and in experiment [2] (setting [4]) were 8.7 ± 0.2 µM and 10.9 ± 0.1 µM, respectively.

In the case of `Fc1ccc(Nc2nnc(Cc3cc4cc(Cl)ccc4[nH]3)s2)cc1` [Compound 8], the figures for the IC50 in experiment [1] (read-out: IC50 for AchE (abstract)) and in experiment [2] (setting [4]) were 0.15 ± 0.05 µM and 0.2 ± 0.1 µM, respectively.

As for `Fc1ccccc1Nc1nnc(Cc2cc3cc(Cl)ccc3[nH]2)s1` [Compound 9], the IC50 in experiment [1] (setting [3]) was 0.35 ± 0.05 µM; in experiment [2] (setting [4]) it was 0.5 ± 0.05 µM.

For the molecule `Fc1cccc(Nc2nnc(Cc3cc4cc(Cl)ccc4[nH]3)s2)c1` [Compound 10], the IC50 amounted to 1.1 ± 0.1 µM in experiment [1] (setting [3]) and 2.8 ± 0.1 µM in experiment [2] (setting [4]).

As for `O=[N+]([O-])c1cc(Br)cc(Nc2nnc(Cc3cc4cc(Cl)ccc4[nH]3)s2)c1` [Compound 11], the IC50 stood at 12.3 ± 0.2 µM in experiment [1] (setting [3]) and 18.4 ± 0.3 µM in experiment [2] (setting [4]).

Take `COc1c(Nc2nnc(Cc3cc4cc(Cl)ccc4[nH]3)s2)cccc1[N+](=O)[O-]` [Compound 12]: the values for the concentration for half-maximal inhibition (IC50) in experiment [1] (setting [3]) and in experiment [2] (setting [4]) were 14.7 ± 0.3 µM and 19.2 ± 0.3 µM, respectively.

Regarding `COc1cc(Nc2nnc(Cc3cc4cc(Cl)ccc4[nH]3)s2)ccc1[N+](=O)[O-]` [Compound 13], the results for the IC50 in experiment [1] (setting [3]) and in experiment [2] (setting [4]) were 19.1 ± 0.3 µM and 25.3 ± 0.4 µM, respectively.

In the case of `FC(F)(F)c1ccc(Nc2nnc(Cc3cc4cc(Cl)ccc4[nH]3)s2)cc1Cl` [Compound 14], the concentration for half-maximal inhibition (IC50) in experiment [1] (setting [3]) was 0.4 ± 0.05 µM; in experiment [2] (setting [4]) it was 2.6 ± 0.1 µM.

On to `O=[N+]([O-])c1cc(Nc2nnc(Cc3cc4cc(Cl)ccc4[nH]3)s2)ccc1Br` [Compound 15], for which the concentration for half-maximal inhibition (IC50) in experiment [1] (setting [3]) was determined as 22.2 ± 0.4 µM; in experiment [2] (setting [4]) it was 32.1 ± 0.1 µM.

On to `O=[N+]([O-])c1ccc(Br)c(Nc2nnc(Cc3cc4cc(Cl)ccc4[nH]3)s2)c1` [Compound 16], for which the IC50 in experiment [2] (setting [4]) was determined as 34.3 ± 0.6 µM.
